Reference: ChEMBL document CHEMBL4507290 (2021)

Columns and labels:
[1] = target: 1-phosphatidylinositol 3-phosphate 5-kinase (Homo sapiens) (UniProt Q9Y2I7); settings: Compound concentration 1000.0 nM
[2] = target: Serine/threonine-protein kinase PLK2 (Homo sapiens) (UniProt Q9NYY3); settings: Compound concentration 1000.0 nM
[3] = target: Peripheral plasma membrane protein CASK (Homo sapiens) (UniProt O14936); settings: Compound concentration 1000.0 nM
[4] = target: SNF-related serine/threonine-protein kinase (Homo sapiens) (UniProt Q9NRH2); settings: Compound concentration 1000.0 nM
[5] = target: Tyrosine-protein kinase SYK (Homo sapiens) (UniProt P43405); settings: Compound concentration 1000.0 nM
[6] = target: Dual specificity mitogen-activated protein kinase kinase 4 (Homo sapiens) (UniProt P45985); settings: Compound concentration 1000.0 nM
[7] = target: Serine/threonine-protein kinase 4 (Homo sapiens) (UniProt Q13043); settings: Compound concentration 1000.0 nM
[8] = target: Serine/threonine-protein kinase/endoribonuclease IRE1 (Homo sapiens) (UniProt O75460); settings: Compound concentration 1000.0 nM
[9] = test system: ALK tyrosine kinase receptor (Homo sapiens), Q9UM73 [C1156Y]; settings: Compound concentration 1000.0 nM
[10] = target: Serine/threonine-protein kinase ULK3 (Homo sapiens) (UniProt Q6PHR2); settings: Compound concentration 1000.0 nM
[11] = target: Calcium/calmodulin-dependent protein kinase type 1B (Homo sapiens) (UniProt Q6P2M8); settings: Compound concentration 1000.0 nM
[12] = target: Dual specificity protein kinase CLK3 (Homo sapiens) (UniProt P49761); settings: Compound concentration 1000.0 nM
Sequence of Dual specificity protein kinase CLK3 (Homo sapiens) (P49761 whole entry, looked up): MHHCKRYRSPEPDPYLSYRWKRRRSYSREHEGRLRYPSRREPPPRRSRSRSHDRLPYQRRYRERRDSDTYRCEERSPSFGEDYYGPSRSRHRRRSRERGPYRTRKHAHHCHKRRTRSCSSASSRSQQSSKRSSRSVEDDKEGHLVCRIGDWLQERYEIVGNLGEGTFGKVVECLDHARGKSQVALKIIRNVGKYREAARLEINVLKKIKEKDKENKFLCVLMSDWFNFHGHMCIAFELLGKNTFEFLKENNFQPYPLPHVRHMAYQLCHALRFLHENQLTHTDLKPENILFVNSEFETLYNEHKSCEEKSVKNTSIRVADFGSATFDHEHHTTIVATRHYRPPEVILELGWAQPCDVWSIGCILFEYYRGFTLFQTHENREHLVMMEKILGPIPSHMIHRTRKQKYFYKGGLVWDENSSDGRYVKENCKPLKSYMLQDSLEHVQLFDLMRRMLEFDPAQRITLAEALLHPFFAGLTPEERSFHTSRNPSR

[13] = target: Serine/threonine-protein kinase Nek6 (Homo sapiens) (UniProt Q9HC98); settings: Compound concentration 1000.0 nM
[14] = target: Mast/stem cell growth factor receptor Kit (Homo sapiens) (UniProt P10721); settings: Compound concentration 1000.0 nM
Sequence of Mast/stem cell growth factor receptor Kit (Homo sapiens) (P10721 whole entry): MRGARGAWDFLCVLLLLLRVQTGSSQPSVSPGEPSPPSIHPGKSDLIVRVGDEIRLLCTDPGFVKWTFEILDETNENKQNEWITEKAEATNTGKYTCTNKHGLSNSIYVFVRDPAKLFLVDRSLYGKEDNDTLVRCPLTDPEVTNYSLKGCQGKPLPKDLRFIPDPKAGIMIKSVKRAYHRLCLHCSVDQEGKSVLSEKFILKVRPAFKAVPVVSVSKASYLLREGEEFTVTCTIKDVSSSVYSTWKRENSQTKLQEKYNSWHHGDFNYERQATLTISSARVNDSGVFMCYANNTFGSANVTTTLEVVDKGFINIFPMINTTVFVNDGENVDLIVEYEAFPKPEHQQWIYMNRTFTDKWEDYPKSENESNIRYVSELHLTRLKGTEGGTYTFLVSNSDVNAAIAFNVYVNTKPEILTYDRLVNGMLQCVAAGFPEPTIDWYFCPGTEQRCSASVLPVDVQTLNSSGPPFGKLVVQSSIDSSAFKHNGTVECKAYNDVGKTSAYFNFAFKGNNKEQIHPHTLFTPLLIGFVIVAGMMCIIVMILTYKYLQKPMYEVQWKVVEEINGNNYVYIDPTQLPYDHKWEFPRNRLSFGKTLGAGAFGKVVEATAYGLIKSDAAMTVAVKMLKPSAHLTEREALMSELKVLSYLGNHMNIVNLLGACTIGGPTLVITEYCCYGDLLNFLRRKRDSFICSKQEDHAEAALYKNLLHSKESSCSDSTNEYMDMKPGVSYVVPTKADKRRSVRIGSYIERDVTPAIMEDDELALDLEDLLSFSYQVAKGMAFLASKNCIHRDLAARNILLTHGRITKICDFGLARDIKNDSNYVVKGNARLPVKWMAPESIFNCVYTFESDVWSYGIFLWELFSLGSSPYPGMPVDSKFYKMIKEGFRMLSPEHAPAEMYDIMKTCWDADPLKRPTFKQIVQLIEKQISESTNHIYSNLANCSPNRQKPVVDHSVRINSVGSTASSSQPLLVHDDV

[15] = target: Death-associated protein kinase 3 (Homo sapiens) (UniProt O43293); settings: Compound concentration 1000.0 nM
[16] = target: Homeodomain-interacting protein kinase 2 (Homo sapiens) (UniProt Q9H2X6); settings: Compound concentration 1000.0 nM
Sequence of Homeodomain-interacting protein kinase 2 (Homo sapiens) (Q9H2X6 whole entry, looked up): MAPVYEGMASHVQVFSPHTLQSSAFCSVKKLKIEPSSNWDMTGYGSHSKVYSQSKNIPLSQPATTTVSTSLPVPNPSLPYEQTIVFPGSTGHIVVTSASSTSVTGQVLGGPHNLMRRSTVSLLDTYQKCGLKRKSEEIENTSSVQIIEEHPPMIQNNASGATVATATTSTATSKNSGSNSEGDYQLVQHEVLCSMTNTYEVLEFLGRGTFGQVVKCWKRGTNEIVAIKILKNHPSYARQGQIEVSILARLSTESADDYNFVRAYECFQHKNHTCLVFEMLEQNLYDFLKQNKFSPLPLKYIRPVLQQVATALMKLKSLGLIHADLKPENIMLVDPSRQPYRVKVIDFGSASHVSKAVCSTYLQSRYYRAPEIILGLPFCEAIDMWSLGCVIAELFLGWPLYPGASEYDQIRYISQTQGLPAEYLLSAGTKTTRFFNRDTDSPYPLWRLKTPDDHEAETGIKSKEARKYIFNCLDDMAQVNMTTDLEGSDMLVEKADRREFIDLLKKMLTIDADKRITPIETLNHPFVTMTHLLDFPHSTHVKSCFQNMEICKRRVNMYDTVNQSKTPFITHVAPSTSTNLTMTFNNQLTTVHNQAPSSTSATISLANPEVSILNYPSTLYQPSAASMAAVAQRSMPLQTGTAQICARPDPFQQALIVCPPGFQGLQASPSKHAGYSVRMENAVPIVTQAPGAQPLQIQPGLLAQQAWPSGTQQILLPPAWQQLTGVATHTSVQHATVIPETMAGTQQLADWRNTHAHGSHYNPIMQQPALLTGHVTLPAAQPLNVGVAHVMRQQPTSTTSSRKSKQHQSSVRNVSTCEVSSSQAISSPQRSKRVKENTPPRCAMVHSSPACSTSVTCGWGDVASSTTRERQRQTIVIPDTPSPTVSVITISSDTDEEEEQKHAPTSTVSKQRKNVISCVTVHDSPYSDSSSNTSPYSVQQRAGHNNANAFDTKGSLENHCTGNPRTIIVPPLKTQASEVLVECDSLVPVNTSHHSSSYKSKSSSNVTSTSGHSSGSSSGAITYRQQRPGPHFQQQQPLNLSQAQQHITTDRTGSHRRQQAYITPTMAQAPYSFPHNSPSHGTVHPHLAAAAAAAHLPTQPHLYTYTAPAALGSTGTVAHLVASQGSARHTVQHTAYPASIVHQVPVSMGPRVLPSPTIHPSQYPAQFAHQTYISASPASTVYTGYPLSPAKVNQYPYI

[17] = target: Receptor-interacting serine/threonine-protein kinase 4 (Homo sapiens) (UniProt P57078); settings: Compound concentration 1000.0 nM
[18] = test system: Phosphatidylinositol 4,5-bisphosphate 3-kinase catalytic subunit alpha isoform (Homo sapiens), P42336 [C420R]; settings: Compound concentration 1000.0 nM
[19] = target: D(1A) dopamine receptor (Homo sapiens) (UniProt P21728); settings: Compound concentration 10.0 uM
[20] = target: Tyrosine-protein kinase receptor TYRO3 (Homo sapiens) (UniProt Q06418); settings: Compound concentration 1000.0 nM
[21] = test system: Receptor-type tyrosine-protein kinase FLT3 (Homo sapiens), P36888 [UNDEFINED MUTATION]; settings: Compound concentration 1000.0 nM
[22] = target: Ribosomal protein S6 kinase alpha-6 (Homo sapiens) (UniProt Q9UK32); settings: Compound concentration 1000.0 nM
[23] = target: Tyrosine-protein kinase JAK1 (Homo sapiens) (UniProt P23458); settings: Compound concentration 1000.0 nM
[24] = target: STE20-like serine/threonine-protein kinase (Homo sapiens) (UniProt Q9H2G2); settings: Compound concentration 1000.0 nM
[25] = target: Maternal embryonic leucine zipper kinase (Homo sapiens) (UniProt Q14680); settings: Compound concentration 1000.0 nM
[26] = target: Calcium/calmodulin-dependent protein kinase type IV (Homo sapiens) (UniProt Q16566); settings: Compound concentration 1000.0 nM
[27] = target: Mitogen-activated protein kinase kinase kinase 19 (Homo sapiens) (UniProt Q56UN5); settings: Compound concentration 1000.0 nM
Sequence of Mitogen-activated protein kinase kinase kinase 19 (Homo sapiens) (Q56UN5 whole entry): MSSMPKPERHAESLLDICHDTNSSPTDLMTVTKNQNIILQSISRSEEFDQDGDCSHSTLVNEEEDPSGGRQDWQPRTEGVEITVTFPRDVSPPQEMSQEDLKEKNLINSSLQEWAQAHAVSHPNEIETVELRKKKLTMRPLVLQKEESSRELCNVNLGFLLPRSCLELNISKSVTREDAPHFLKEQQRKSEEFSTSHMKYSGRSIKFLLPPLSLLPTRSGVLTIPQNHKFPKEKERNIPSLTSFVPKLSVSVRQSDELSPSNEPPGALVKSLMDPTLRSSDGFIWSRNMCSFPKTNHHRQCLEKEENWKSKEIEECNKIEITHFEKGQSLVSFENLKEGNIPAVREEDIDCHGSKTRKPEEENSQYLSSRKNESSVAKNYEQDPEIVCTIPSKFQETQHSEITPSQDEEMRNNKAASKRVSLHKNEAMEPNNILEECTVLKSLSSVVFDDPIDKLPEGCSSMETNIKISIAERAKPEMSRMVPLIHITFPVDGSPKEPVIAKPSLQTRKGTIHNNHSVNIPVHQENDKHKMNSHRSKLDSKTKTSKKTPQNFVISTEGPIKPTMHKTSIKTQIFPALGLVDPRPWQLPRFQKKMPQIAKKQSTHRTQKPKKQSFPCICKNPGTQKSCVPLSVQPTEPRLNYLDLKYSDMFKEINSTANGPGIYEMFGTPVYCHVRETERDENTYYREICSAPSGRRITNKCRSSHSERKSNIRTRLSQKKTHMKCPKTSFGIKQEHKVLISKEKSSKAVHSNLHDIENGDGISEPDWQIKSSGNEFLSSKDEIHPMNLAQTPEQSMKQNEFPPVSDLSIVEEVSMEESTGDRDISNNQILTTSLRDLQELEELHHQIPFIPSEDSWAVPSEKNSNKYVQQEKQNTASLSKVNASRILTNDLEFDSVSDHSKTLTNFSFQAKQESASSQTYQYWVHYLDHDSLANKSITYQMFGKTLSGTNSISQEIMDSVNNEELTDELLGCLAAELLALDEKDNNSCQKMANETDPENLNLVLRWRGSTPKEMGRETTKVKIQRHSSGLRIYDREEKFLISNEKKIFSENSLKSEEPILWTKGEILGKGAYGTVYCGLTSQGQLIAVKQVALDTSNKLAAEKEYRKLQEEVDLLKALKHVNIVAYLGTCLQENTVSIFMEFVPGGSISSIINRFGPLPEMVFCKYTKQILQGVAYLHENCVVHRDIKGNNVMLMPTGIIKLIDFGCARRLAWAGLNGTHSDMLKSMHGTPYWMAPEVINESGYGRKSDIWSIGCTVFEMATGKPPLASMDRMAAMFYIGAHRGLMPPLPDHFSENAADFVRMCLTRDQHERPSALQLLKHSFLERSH

[28] = target: Leukocyte tyrosine kinase receptor (Homo sapiens) (UniProt P29376); settings: Compound concentration 1000.0 nM
[29] = test system: Proto-oncogene tyrosine-protein kinase receptor Ret (Homo sapiens), P07949 [V804L]; settings: Compound concentration 1000.0 nM
[30] = test system: Tyrosine-protein kinase ABL1 (Homo sapiens), P00519 [F317I]; settings: Compound concentration 1000.0 nM
[31] = target: Muscarinic acetylcholine receptor M1 (Homo sapiens) (UniProt P11229); settings: Compound concentration 10.0 uM
[32] = target: Serine/threonine-protein kinase Nek5 (Homo sapiens) (UniProt Q6P3R8); settings: Compound concentration 1000.0 nM
[33] = target: Membrane-associated tyrosine- and threonine-specific cdc2-inhibitory kinase (Homo sapiens) (UniProt Q99640); settings: Compound concentration 1000.0 nM
[34] = test system: Mast/stem cell growth factor receptor Kit (Homo sapiens), P10721 [A829P]; settings: Compound concentration 1000.0 nM
[35] = target: 5-hydroxytryptamine receptor 5A (Homo sapiens) (UniProt P47898); settings: Compound concentration 10.0 uM
[36] = target: Mast/stem cell growth factor receptor Kit (Homo sapiens) (UniProt P10721); settings: Compound concentration 1000.0 nM; remark: listed apart in the source
[37] = target: Ribosomal protein S6 kinase alpha-5 (Homo sapiens) (UniProt O75582); settings: Compound concentration 1000.0 nM
[38] = target: Mitogen-activated protein kinase kinase kinase 13 (Homo sapiens) (UniProt O43283); settings: Compound concentration 1000.0 nM
[39] = target: Ephrin type-A receptor 2 (Homo sapiens) (UniProt P29317); settings: Compound concentration 1000.0 nM
[40] = test system: Mast/stem cell growth factor receptor Kit (Homo sapiens), P10721 [V559D]; settings: Compound concentration 1000.0 nM
[41] = target: Cyclin-dependent kinase 4 (Homo sapiens) (UniProt P11802); settings: Compound concentration 1000.0 nM
[42] = target: Interferon-induced, double-stranded RNA-activated protein kinase (Homo sapiens) (UniProt P19525); settings: Compound concentration 1000.0 nM
[43] = target: Dual specificity tyrosine-phosphorylation-regulated kinase 1A (Homo sapiens) (UniProt Q13627); settings: Compound concentration 1000.0 nM
[44] = test system: Mast/stem cell growth factor receptor Kit (Homo sapiens), P10721 [D816H]; settings: Compound concentration 1000.0 nM
Sequence of Mast/stem cell growth factor receptor Kit (Homo sapiens), P10721 [D816H] (P10721 whole entry D816H): as the sequence (P10721 whole entry) above, with D816H counted along it

CN([C@@H]1CCc2c(CC(=O)O)c3cc(S(C)(=O)=O)ccc3n2C1)S(=O)(=O)c1ccc(F)cc1
inactive: residual activity [1] 97% | residual activity [2] 90% | residual activity [3] 80% | residual activity [4] 100% | residual activity [5] 100% | residual activity [6] 75% | residual activity [7] 97% | residual activity [8] 100% | residual activity [9] 72% | residual activity [10] 79% | residual activity [11] 90% | residual activity [12] 100% | residual activity [13] 84% | residual activity [14] 89% | residual activity [15] 97% | residual activity [16] 100% | residual activity [17] 75% | residual activity [18] 98% | inhibition [19] -2.96% | residual activity [20] 91% | residual activity [21] 82% | residual activity [22] 100% | residual activity [23] 100% | residual activity [24] 100% | residual activity [25] 84% | residual activity [26] 87% | residual activity [27] 79% | residual activity [28] 100% | residual activity [29] 100% | residual activity [30] 75% | inhibition [31] -1.48% | residual activity [32] 100% | residual activity [33] 100% | residual activity [34] 100% | inhibition [35] -1.56% | residual activity [36] 86% | residual activity [37] 85% | residual activity [38] 100% | residual activity [39] 100% | residual activity [40] 92% | residual activity [41] 93% | residual activity [42] 100% | residual activity [43] 81% | residual activity [44] 97%

CN([C@@H]1CCc2c(CC(=O)O)c3ccccc3n2C1)S(=O)(=O)c1ccc(F)cc1 [MK-7246]
inactive: residual activity [1] 100% | residual activity [2] 92% | residual activity [3] 66% | residual activity [4] 100% | residual activity [5] 100% | residual activity [6] 100% | residual activity [7] 98% | residual activity [8] 94% | residual activity [9] 98% | residual activity [10] 80% | residual activity [11] 87% | residual activity [12] 97% | residual activity [13] 99% | residual activity [14] 96% | residual activity [15] 87% | residual activity [16] 100% | residual activity [17] 85% | residual activity [18] 100% | inhibition [19] 12.3% | residual activity [20] 72% | residual activity [21] 100% | residual activity [22] 100% | residual activity [23] 100% | residual activity [24] 100% | residual activity [25] 93% | residual activity [26] 85% | residual activity [27] 100% | residual activity [28] 100% | residual activity [29] 99% | residual activity [30] 79% | inhibition [31] 2.42% | residual activity [32] 100% | residual activity [33] 100% | residual activity [34] 100% | inhibition [35] -1.36% | residual activity [36] 100% | residual activity [37] 95% | residual activity [38] 100% | residual activity [39] 100% | residual activity [40] 100% | residual activity [41] 100% | residual activity [42] 100% | residual activity [43] 69% | residual activity [44] 95%
